Experimental data reported in PubChem BioAssay AID1361 (SRMLSC, 2008).
Calls of active or inactive are those of the source. No rule for the calls is given here.

Assay: blockers of mitochondrial fusion, WT vs mutant – cell-based, chemical genetic, wild-type and mutant, confirmation (AID 1361)
Details: Cell-based mitochondrial fusion phenotype, imaging
[1] = mutant cells, measured here: mutant cell line IC50

Row | IC50 (WT cells) | IC50 [1] [µM] | SMILES
1 | > 25 µM (inactive) | > 25 | C=CCOc1ccc2ccccc2c1CNCCCN1CCOCC1
2 | 13.2 µM | > 25 | CCC1=NN2C(=N)/C(=C\c3cccn3-c3ccc(C)cc3C)C(=O)N=C2S1
3 | > 25 µM (inactive) | > 25 | Cc1cc(=O)n2[nH]c(-c3ccc(F)cc3)cc2n1
4 | 19.1 µM | > 25 | O=C1C(Cl)=C(NC2CCCCC2)C(=O)N1Cc1ccccc1
5 | > 25 µM (inactive) | > 25 | CCOC(=O)c1sc2nc(CSc3ccccc3)nc(N3CCC(C(N)=O)CC3)c2c1C
6 | > 25 µM (inactive) | > 25 | O=C(NCc1ccccc1Cl)c1cnccn1
7 | 18.1 µM | > 25 | NC(=O)COC(=O)c1ccc(Cl)c(S(=O)(=O)N(Cc2ccccc2)c2ccc(Cl)cc2)c1
8 | 24.7 µM | > 25 | CC(C)=CCc1c2c(c3occ(-c4ccc(O)cc4)c(=O)c3c1O)C=CC(C)(C)O2
9 | > 25 µM (inactive) | > 25 | CCc1cc2c(=O)c(-c3cscn3)coc2cc1O
10 | 10.6 µM | > 25 | Clc1cccc(NCc2nnc(SCc3ccc(Cl)cc3Cl)o2)c1
11 | > 25 µM (inactive) | > 25 | CCc1nnc(NC(=O)C2Cc3ccccc3CN2S(=O)(=O)c2ccc(C)cc2)s1 (configuration not stated)
12 | 16.7 µM | 17 | COc1ccc(CN(C)C2c3ccccc3-c3ccccc32)cc1
13 | > 25 µM (inactive) | > 25 | CCOC(=O)CSc1n[nH]c(-c2cccnc2)n1
14 | > 25 µM (inactive) | > 25 | O=C(CCCCCn1c(=S)[nH]c2cc3c(cc2c1=O)OCO3)N1CCN(C(=O)c2ccco2)CC1
15 | 24 µM | > 25 | CC(=O)N(Cc1ccc(F)cc1)C1=C(NCCc2ccccc2)C(=O)c2ccccc2C1=O
16 | > 25 µM (inactive) | > 25 | CCC(C)Nc1c([N+](=O)[O-])cc(C)cc1[N+](=O)[O-] (configuration not stated)
17 | 20.2 µM | > 25 | CC(C)Oc1ccc(C(=O)NC2(C(F)(F)F)NC(=O)N(CCCc3ccccc3)C2=O)cc1 (configuration not stated)
18 | > 25 µM (inactive) | > 25 | COC(=O)Cn1ccc(N(C)C)c(C#N)c1=O
19 | 11.8 µM | > 25 | CCOC(=O)c1sc(NC(=O)Nc2cccc(Cl)c2)cc1C
20 | > 25 µM (inactive) | > 25 | Cc1nc(NC2=NCN(C3CCCCC3C)CN2)nc2ccccc12 (configuration not stated)
21 | 17 µM | 21.5 | CCCCCCOC1(c2ccccc2)OC(=O)c2ccccc21 (configuration not stated)

Row | IC50 (WT cells) | IC50 [1] [µM] | SMILES
22 | > 25 µM (inactive) | > 25 | NC(=O)NCCC1=CCCCC1
23 | 10.3 µM | > 25 | O=C(CN1CCc2ccccc2C1)Nc1ccccc1N1CCCCCC1
24 | > 25 µM (inactive) | > 25 | CC(=O)Oc1ccccc1N(C(C)=O)S(=O)(=O)c1ccc2ccccc2c1
25 | 15 µM | > 25 | CC12CCC(O)CC1=CCC1C2CCC2(C)C1CCC21CCC(=O)O1 (configuration not stated)
26 | 9.01 µM | > 25 | COc1ccccc1/C=C\C=N\n1c(-c2ccc(Cl)cc2Cl)n[nH]c1=S
27 | 13.3 µM | > 25 | CCN(c1ccc2c(c1)OCO2)S(=O)(=O)c1cc(Br)cc2c1N(C(=O)C1CC1)CC2
28 | > 25 µM (inactive) | > 25 | Cc1[nH][nH]c(=O)c1C(c1c(C)[nH][nH]c1=O)c1cn(Cc2ccccc2Cl)c2ccccc12
29 | 12.1 µM | > 12.5 | CN1CCN(CCCNC(=O)c2ccc(/C=C3/Sc4ccccc4N(Cc4cccc(Cl)c4)C3=O)cc2)CC1
30 | 24.4 µM | > 25 | CC1CCCCN1C(=O)Cn1cc(/C=C2/C(=O)Nc3ccccc32)c2ccccc21 (configuration not stated)
31 | 10.4 µM | > 25 | COC(=O)CNC(c1ccccc1)c1cc(Cl)ccc1NC(=O)c1cccc(Cl)c1 (configuration not stated)
32 | > 25 µM (inactive) | > 25 | Cc1oc(-c2ccccc2F)nc1CN1CCC(C(=O)NCCC2=CCCCC2)CC1
33 | 10.8 µM | > 25 | O=S(=O)(Nc1ccc(O)c(Sc2nc3ccccc3s2)c1)c1cccc2ccccc12
34 | 23.9 µM | > 25 | COc1ccccc1N1CCN(C(=O)c2oc3cc(C)cc(C)c3c2C)CC1
35 | > 25 µM (inactive) | > 25 | CCOC(=O)C1CCN(CC(=O)Nc2cc(C)nn2-c2nc3ccccc3s2)CC1
36 | 13.7 µM | > 25 | CC(C)N(Cc1nc(-c2ccc(Cl)cc2)no1)C(=O)CCC1CCCC1
37 | > 25 µM (inactive) | > 25 | Cc1ccc(N=Cc2c(O)n(-c3ccc4c(c3)OCO4)c(=O)c3ccccc23)cc1
38 | > 25 µM (inactive) | > 25 | CC1CC1C(=O)OCC(=O)NCc1ccc(Cl)cc1Cl (configuration not stated)
39 | 17 µM | > 25 | O=c1c2ccccc2n(Cc2ccc(F)cc2)c(=O)n1C1CCCC1
40 | > 25 µM (inactive) | > 25 | O=C(NCc1ccccc1)c1ccc(C(=O)N(C2CCCCC2)C2CCCCC2)cc1
41 | 10.3 µM | > 25 | COc1ccc(Cn2nc(-c3ccccc3)c(N3CCCCC3)cc2=O)cc1
42 | 21.7 µM | > 25 | CC1=CCC[C@@H]2[C@@](C)(CC/C(C)=C/C(=O)O)[C@H](C)CC[C@@]12C

Row | IC50 (WT cells) | IC50 [1] [µM] | SMILES
43 | 8.07 µM | > 25 | COc1ccc2ccc3c(c2c1)N=C[C@]1(O3)N(C)c2ccccc2C1(C)C
44 | > 25 µM (inactive) | > 25 | COc1ccc(CCn2nnnc2C(C(C)C)N2CCN(c3ncccn3)CC2)cc1OC (configuration not stated)
45 | > 25 µM (inactive) | > 25 | CSc1nncn1/N=C/c1ccc2c(c1)OCO2
46 | > 25 µM (inactive) | > 25 | CCOC(=O)C1=C(C)N=C2SCCC(=O)N2C1c1sccc1C (configuration not stated)
47 | > 25 µM (inactive) | > 25 | c1ccc(-c2nnc(CSc3nnc(-c4ccncc4)n3Cc3ccco3)o2)cc1
48 | > 25 µM (inactive) | > 12.5 | O=S(=O)(NCC(Nc1ccc(Cl)cc1)c1ccccc1)c1ccc(Cl)cc1 (configuration not stated)
49 | > 25 µM (inactive) | > 25 | Cc1cc(C)cc(NC(=S)Nc2cccc3cnccc23)c1
50 | 17.5 µM | > 25 | O=C(Nc1ccc(F)cc1)c1ccccc1Oc1ccc(C(F)(F)F)cc1[N+](=O)[O-]
51 | > 25 µM (inactive) | > 25 | CCOc1cc(C(=O)N(C)Cc2cc3ccccc3[nH]c2=O)cc(OCC)c1OCC
52 | 13.1 µM | > 25 | O=C(CCSc1ccc(Cl)cc1)NC12CC3CC(CC(C3)C1)C2
53 | > 25 µM (inactive) | > 25 | CCn1nccc1C(=O)Nc1ccc(S(=O)(=O)NC23CC4CC(CC(C4)C2)C3)cc1
54 | > 25 µM (inactive) | > 25 | CCCNC(=O)c1ccccc1NC(=O)CSCc1ccc(OC)cc1
55 | 7.84 µM | > 25 | CCOC(=O)C1=NN(c2ccccc2)C2(S1)SC(C(C)=O)=C(C)N2c1ccccc1 (configuration not stated)
56 | > 25 µM (inactive) | > 25 | Cc1ccc(-c2nn(-c3ccccc3)cc2CSC(=N)N)cc1
57 | 10 µM | > 25 | Clc1ccc(-c2csc3ncnc(N4CCc5ccccc5C4)c23)cc1
58 | > 25 µM (inactive) | > 25 | Fc1cccc(-c2cc3nc4c(c(N5CCC6(CC5)OCCO6)n3n2)CCCC4)c1
59 | 4.98 µM | > 25 | CCOc1ccc(S(=O)(=O)N2CCN(C(=O)c3cc4c(s3)CCCC4)CC2)cc1
60 | 19.5 µM | > 25 | COc1ccc(NC(=S)NNC(=O)COc2ccc(Cl)cc2Cl)cc1
61 | 2.57 µM | > 25 | CCOC(=O)C1=C(C)Nc2sc(C(=O)c3ccc(F)cc3)c(N)c2C1c1ccc(C(=O)OC)cc1 (configuration not stated)
62 | 6.19 µM | > 25 | COC(=O)[C@@H]1CC[C@H](C)[C@@H](c2ccc(C)cc2)N1C(=O)c1ccc(/C=N/O[C@@H](C)CN2CCCCc3nc(C)c(C)cc32)cc1
63 | > 25 µM (inactive) | > 25 | O=C(/C(=N\O)n1cncn1)c1ccc(Br)cc1Br

Row | IC50 (WT cells) | IC50 [1] [µM] | SMILES
64 | > 25 µM (inactive) | > 25 | CCOC(=O)N1CCN(C(=O)CN(C)S(=O)(=O)c2ccc3c(c2)C(C)(C)C(=O)N3C)CC1
65 | > 25 µM (inactive) | > 25 | COc1ccc(S(=O)(=O)N2CCCCCC2)cc1C(=O)OCc1c(C)noc1C
66 | > 25 µM (inactive) | > 25 | CN(C)S(=O)(=O)c1cccc(C(=O)NCC2CCCO2)c1 (configuration not stated)
67 | 11.7 µM | 19.5 | N#Cc1sc2nc(C3CC3)cc(-c3ccc(Cl)cc3)c2c1N
68 | 13.7 µM | > 25 | O=C(c1cc(-c2ccccc2)nc2ccccc12)N1CCCc2ccccc21
69 | > 25 µM (inactive) | > 25 | CCN(CC)S(=O)(=O)c1cccc(C(=O)Nc2sc3c(c2C(N)=O)CCCC3)c1
70 | 21.1 µM | > 25 | Cc1cc(Cl)ccc1OC(C)C(=O)Nc1ccccc1N1CCOCC1 (configuration not stated)
71 | > 25 µM (inactive) | > 25 | Nc1ccc2nc(CN3CCOCC3)[nH]c2c1
72 | > 25 µM (inactive) | > 25 | Cn1cc(C(=O)c2ccc(Cl)cc2Cl)cc1C(=O)O
73 | > 25 µM (inactive) | > 25 | COc1ccc(CCn2nnnc2C(CC(C)C)N2CCN(c3ncccn3)CC2)cc1OC (configuration not stated)
74 | 13.4 µM | > 25 | CN(C)c1ccc(C(CNS(=O)(=O)c2ccc(F)c(F)c2)c2c[nH]c3ccccc23)cc1 (configuration not stated)
75 | > 25 µM (inactive) | > 25 | O=C(NCCCN1CCOCC1)c1ccccc1-c1ccccc1
76 | > 25 µM (inactive) | > 25 | O=C(Nc1ccccc1Sc1ccccc1)c1ccc(F)cc1
77 | 19.1 µM | > 25 | O=C(c1ccc(C(F)(F)F)cc1)N1CCC(=O)N(C(COCc2ccc(Cl)cc2)Cc2ccccc2)CC1 (configuration not stated)
78 | > 25 µM (inactive) | > 25 | NC(=O)c1ccc(N2CCCCC2)c(N2C(=O)C3CC=CCC3C2=O)c1 (configuration not stated)
79 | 6.53 µM | > 25 | O=[N+]([O-])c1cccnc1N1CCC(c2cc(-c3ccc(Cl)cc3Cl)n[nH]2)CC1
80 | 18.6 µM | > 25 | N#CC(C#N)=C1C=CC=CN1/C(=C\c1ccccc1Cl)C(=O)c1ccccc1
81 | 21.2 µM | > 25 | COc1cc(CNn2cn[nH]c2=S)cc(Cl)c1OCc1ccc(F)cc1
